Assay results published in the NIST ThermoML archive (doi:10.1021/acs.jced.8b00554).
Numbers after ± are expanded uncertainties.

Test: xn = mol fraction of the nth substance listed
Conditions: Liquid, Vibrating tube method

CCCCCCCCCC [decane] + CCCO
mass density [kg/m3]
Conditions | 343.15 K | 353.15 K
100 kPa, x2 = 0.1391 | 687.56 ± 4.4 | 676.32 ± 4.3
100 kPa, x2 = 0.1907 | 688.32 ± 4.4 | 676.49 ± 4.3
100 kPa, x2 = 0.3001 | 690.77 ± 4.4 | 678.11 ± 4.3
100 kPa, x2 = 0.4326 | 694.55 ± 4.5 | 680.77 ± 4.4
100 kPa, x2 = 0.6863 | 710.6 ± 4.5 | 696.41 ± 4.5
100 kPa, x2 = 0.8711 | 732.51 ± 4.7 | 719.28 ± 4.6
1000 kPa, x2 = 0.1391 | – | 678.16 ± 4.3
1000 kPa, x2 = 0.1907 | – | 678.39 ± 4.3
1000 kPa, x2 = 0.8711 | – | 721.12 ± 4.6
1010 kPa, x2 = 0.1391 | 689.22 ± 4.4 | –
1010 kPa, x2 = 0.1907 | 690.02 ± 4.4 | –
1010 kPa, x2 = 0.3001 | 692.37 ± 4.4 | 679.67 ± 4.3
1010 kPa, x2 = 0.4326 | 696.46 ± 4.5 | –
1010 kPa, x2 = 0.6863 | 712.46 ± 4.6 | 698.52 ± 4.5
1010 kPa, x2 = 0.8711 | 734.14 ± 4.7 | –
1020 kPa, x2 = 0.4326 | – | 682.95 ± 4.4
2000 kPa, x2 = 0.6863 | 713.55 ± 4.6 | –
2010 kPa, x2 = 0.1391 | – | 679.31 ± 4.3
2010 kPa, x2 = 0.1907 | 691.1 ± 4.4 | –
2010 kPa, x2 = 0.3001 | 693.48 ± 4.4 | 680.84 ± 4.4
2010 kPa, x2 = 0.6863 | – | 699.68 ± 4.5
2010 kPa, x2 = 0.8711 | – | 722.21 ± 4.6
2020 kPa, x2 = 0.1391 | 690.3 ± 4.4 | –
2020 kPa, x2 = 0.1907 | – | 679.54 ± 4.3
2020 kPa, x2 = 0.4326 | 697.54 ± 4.5 | 684.1 ± 4.4
2020 kPa, x2 = 0.8711 | 735.16 ± 4.7 | –
3000 kPa, x2 = 0.1907 | – | 680.66 ± 4.4
3000 kPa, x2 = 0.3001 | – | 681.96 ± 4.4
3010 kPa, x2 = 0.1391 | 691.36 ± 4.4 | –
3010 kPa, x2 = 0.1907 | 692.15 ± 4.4 | –
3010 kPa, x2 = 0.3001 | 694.52 ± 4.5 | –
3010 kPa, x2 = 0.6863 | – | 700.85 ± 4.5
3010 kPa, x2 = 0.8711 | 736.2 ± 4.7 | –
3020 kPa, x2 = 0.1391 | – | 680.43 ± 4.4
3020 kPa, x2 = 0.4326 | 698.61 ± 4.5 | 685.26 ± 4.4
3020 kPa, x2 = 0.6863 | 714.64 ± 4.6 | –
3020 kPa, x2 = 0.8711 | – | 723.32 ± 4.6
4000 kPa, x2 = 0.1391 | 692.41 ± 4.4 | –
4000 kPa, x2 = 0.4326 | – | 686.44 ± 4.4
4000 kPa, x2 = 0.6863 | 715.75 ± 4.6 | –
4000 kPa, x2 = 0.8711 | 737.27 ± 4.7 | –
4010 kPa, x2 = 0.1391 | – | 681.55 ± 4.4
4010 kPa, x2 = 0.1907 | – | 681.83 ± 4.4
4010 kPa, x2 = 0.3001 | – | 683.13 ± 4.4
4010 kPa, x2 = 0.6863 | – | 702.05 ± 4.5
4020 kPa, x2 = 0.1907 | 693.23 ± 4.4 | –
4020 kPa, x2 = 0.3001 | 695.6 ± 4.5 | –
4020 kPa, x2 = 0.4326 | 699.72 ± 4.5 | –
4020 kPa, x2 = 0.8711 | – | 724.45 ± 4.6
5000 kPa, x2 = 0.4326 | 700.81 ± 4.5 | –
5000 kPa, x2 = 0.8711 | – | 725.63 ± 4.7
5010 kPa, x2 = 0.1391 | – | 682.67 ± 4.4
5010 kPa, x2 = 0.1907 | – | 682.92 ± 4.4
5010 kPa, x2 = 0.3001 | 696.69 ± 4.5 | 684.29 ± 4.4
5010 kPa, x2 = 0.4326 | – | 687.63 ± 4.4
5010 kPa, x2 = 0.6863 | 716.84 ± 4.6 | –
5020 kPa, x2 = 0.1391 | 693.45 ± 4.4 | –
5020 kPa, x2 = 0.1907 | 694.27 ± 4.5 | –
5020 kPa, x2 = 0.6863 | – | 703.25 ± 4.5
5020 kPa, x2 = 0.8711 | 738.33 ± 4.7 | –
6000 kPa, x2 = 0.6863 | – | 704.42 ± 4.5
6010 kPa, x2 = 0.1391 | – | 683.79 ± 4.4
6010 kPa, x2 = 0.1907 | 695.3 ± 4.5 | 684.03 ± 4.4
6010 kPa, x2 = 0.4326 | 701.9 ± 4.5 | 688.8 ± 4.4
6010 kPa, x2 = 0.6863 | 717.93 ± 4.6 | –
6010 kPa, x2 = 0.8711 | 739.41 ± 4.7 | –
6020 kPa, x2 = 0.1391 | 694.49 ± 4.5 | –
6020 kPa, x2 = 0.3001 | 697.74 ± 4.5 | 685.42 ± 4.4
6020 kPa, x2 = 0.8711 | – | 726.78 ± 4.7
7000 kPa, x2 = 0.4326 | 702.99 ± 4.5 | –
7000 kPa, x2 = 0.8711 | 740.46 ± 4.7 | –
7010 kPa, x2 = 0.1391 | 695.53 ± 4.5 | –
7010 kPa, x2 = 0.1907 | 696.35 ± 4.5 | –
7010 kPa, x2 = 0.3001 | 698.82 ± 4.5 | 686.6 ± 4.4
7010 kPa, x2 = 0.4326 | – | 690 ± 4.4
7010 kPa, x2 = 0.6863 | 719.02 ± 4.6 | –
7020 kPa, x2 = 0.1391 | – | 684.92 ± 4.4
7020 kPa, x2 = 0.1907 | – | 685.14 ± 4.4
7020 kPa, x2 = 0.6863 | – | 705.63 ± 4.5
7020 kPa, x2 = 0.8711 | – | 727.93 ± 4.7
8000 kPa, x2 = 0.1907 | 697.42 ± 4.5 | –
8000 kPa, x2 = 0.3001 | – | 687.74 ± 4.4
8000 kPa, x2 = 0.8711 | 741.52 ± 4.8 | –
8010 kPa, x2 = 0.1391 | 696.59 ± 4.5 | 686.06 ± 4.4
8010 kPa, x2 = 0.1907 | – | 686.32 ± 4.4
8010 kPa, x2 = 0.4326 | – | 691.17 ± 4.4
8010 kPa, x2 = 0.6863 | 720.12 ± 4.6 | 706.82 ± 4.5
8010 kPa, x2 = 0.8711 | – | 729.07 ± 4.7
8020 kPa, x2 = 0.3001 | 699.88 ± 4.5 | –
8020 kPa, x2 = 0.4326 | 704.06 ± 4.5 | –
9000 kPa, x2 = 0.1907 | 698.46 ± 4.5 | –
9000 kPa, x2 = 0.6863 | – | 708.03 ± 4.5
9010 kPa, x2 = 0.1391 | 697.61 ± 4.5 | –
9010 kPa, x2 = 0.3001 | 700.95 ± 4.5 | –
9010 kPa, x2 = 0.4326 | – | 692.36 ± 4.4
9010 kPa, x2 = 0.8711 | 742.57 ± 4.8 | 730.22 ± 4.7
9020 kPa, x2 = 0.1391 | – | 687.14 ± 4.4
9020 kPa, x2 = 0.1907 | – | 687.44 ± 4.4
9020 kPa, x2 = 0.3001 | – | 688.92 ± 4.4
9020 kPa, x2 = 0.4326 | 705.14 ± 4.5 | –
9020 kPa, x2 = 0.6863 | 721.21 ± 4.6 | –
10000 kPa, x2 = 0.4326 | 706.23 ± 4.5 | 693.57 ± 4.5
10000 kPa, x2 = 0.6863 | – | 709.2 ± 4.5
10010 kPa, x2 = 0.1391 | 698.62 ± 4.5 | 688.25 ± 4.4
10010 kPa, x2 = 0.3001 | 702.02 ± 4.5 | –
10010 kPa, x2 = 0.6863 | 722.27 ± 4.6 | –
10010 kPa, x2 = 0.8711 | 743.61 ± 4.8 | –
10020 kPa, x2 = 0.1907 | 699.47 ± 4.5 | –
11010 kPa, x2 = 0.1391 | 699.66 ± 4.5 | –
11010 kPa, x2 = 0.1907 | 700.5 ± 4.5 | –
11010 kPa, x2 = 0.4326 | 707.27 ± 4.5 | –
11010 kPa, x2 = 0.8711 | 744.65 ± 4.8 | –
11020 kPa, x2 = 0.3001 | 703.07 ± 4.5 | –
11020 kPa, x2 = 0.6863 | 723.34 ± 4.6 | –
12000 kPa, x2 = 0.4326 | 708.34 ± 4.5 | –
12000 kPa, x2 = 0.8711 | 745.65 ± 4.8 | –
12010 kPa, x2 = 0.1907 | 701.55 ± 4.5 | –
12010 kPa, x2 = 0.3001 | 704.1 ± 4.5 | –
12020 kPa, x2 = 0.1391 | 700.67 ± 4.5 | –
12020 kPa, x2 = 0.6863 | 724.37 ± 4.6 | –
13000 kPa, x2 = 0.1391 | 701.67 ± 4.5 | –
13000 kPa, x2 = 0.6863 | 725.42 ± 4.7 | –
13000 kPa, x2 = 0.8711 | 746.64 ± 4.8 | –
13010 kPa, x2 = 0.3001 | 705.15 ± 4.5 | –
13010 kPa, x2 = 0.4326 | 709.37 ± 4.5 | –
13020 kPa, x2 = 0.1907 | 702.55 ± 4.5 | –
14000 kPa, x2 = 0.3001 | 706.16 ± 4.5 | –
14000 kPa, x2 = 0.4326 | 710.39 ± 4.5 | –
14000 kPa, x2 = 0.6863 | 726.44 ± 4.7 | –
14000 kPa, x2 = 0.8711 | 747.65 ± 4.8 | –
14010 kPa, x2 = 0.1391 | 702.65 ± 4.5 | –
14020 kPa, x2 = 0.1907 | 703.54 ± 4.5 | –
15000 kPa, x2 = 0.1391 | 703.58 ± 4.5 | –
15000 kPa, x2 = 0.1907 | 704.5 ± 4.5 | –
15000 kPa, x2 = 0.6863 | 727.44 ± 4.7 | –
15010 kPa, x2 = 0.4326 | 711.38 ± 4.6 | –
15010 kPa, x2 = 0.8711 | 748.62 ± 4.8 | –
15020 kPa, x2 = 0.3001 | 707.12 ± 4.5 | –
16000 kPa, x2 = 0.6863 | 728.43 ± 4.7 | –
16000 kPa, x2 = 0.8711 | 749.58 ± 4.8 | –
16010 kPa, x2 = 0.1391 | 704.52 ± 4.5 | –
16010 kPa, x2 = 0.1907 | 705.46 ± 4.5 | –
16010 kPa, x2 = 0.3001 | 708.12 ± 4.5 | –
16020 kPa, x2 = 0.4326 | 712.37 ± 4.6 | –
17000 kPa, x2 = 0.1907 | 706.43 ± 4.5 | –
17000 kPa, x2 = 0.3001 | 709.07 ± 4.5 | –
17000 kPa, x2 = 0.4326 | 713.3 ± 4.6 | –
17010 kPa, x2 = 0.1391 | 705.45 ± 4.5 | –
17010 kPa, x2 = 0.6863 | 729.39 ± 4.7 | –
17010 kPa, x2 = 0.8711 | 750.52 ± 4.8 | –
18000 kPa, x2 = 0.6863 | 730.34 ± 4.7 | –
18010 kPa, x2 = 0.1907 | 707.33 ± 4.5 | –
18010 kPa, x2 = 0.3001 | 709.98 ± 4.6 | –
18010 kPa, x2 = 0.4326 | 714.25 ± 4.6 | –
18010 kPa, x2 = 0.8711 | 751.45 ± 4.8 | –
18020 kPa, x2 = 0.1391 | 706.37 ± 4.5 | –
19010 kPa, x2 = 0.1391 | 707.22 ± 4.5 | –
19010 kPa, x2 = 0.3001 | 710.9 ± 4.6 | –
19010 kPa, x2 = 0.4326 | 715.15 ± 4.6 | –
19010 kPa, x2 = 0.6863 | 731.24 ± 4.7 | –
19010 kPa, x2 = 0.8711 | 752.35 ± 4.8 | –
19020 kPa, x2 = 0.1907 | 708.2 ± 4.5 | –
20000 kPa, x2 = 0.1391 | 708.05 ± 4.5 | –
20000 kPa, x2 = 0.1907 | 709.04 ± 4.5 | –
20000 kPa, x2 = 0.8711 | 753.23 ± 4.8 | –
20010 kPa, x2 = 0.4326 | 716.08 ± 4.6 | –
20010 kPa, x2 = 0.6863 | 732.18 ± 4.7 | –
20020 kPa, x2 = 0.3001 | 711.75 ± 4.6 | –
